52 compounds from PubChem BioAssay AID1996 can be followed below.

Structures are written as SMILES. Converted amounts (≈) assume the structure as drawn.

The conditions of the data set: buffer; pH 7.4; 200.0 µM.
The kinetic solubility is solubility judged after dilution from a stock solution rather than from solid. Take `CCC1(C)CC(=O)N(c2ccc(F)c(Cl)c2)C(=O)C1`: the solubility (kinetic) came to 14 µg/mL (≈ 49.3 µM).

For `O=C(Nc1cc(C(F)(F)F)ccc1Cl)c1cccnc1`, the kinetic solubility was determined as 32.7 µg/mL (≈ 109 µM).

Regarding `CSc1ncc(C(=O)Nc2ccccc2)cn1`, the kinetic solubility was > 36.8 µg/mL.

Turning to `COc1ccc(Cl)cc1Nc1nc(N)c2ccccc2n1.Cl`, the solubility (kinetic) stood at 5.3 µg/mL.

Regarding `COc1ccccc1NS(=O)(=O)c1cc(NC(=O)c2ccc(Cl)nc2)ccc1N1CCCC1`, the kinetic solubility turned out to be 2.1 µg/mL (≈ 4.31 µM).

The compound `Cc1ccccc1N1C(=O)c2cccc3cccc(c23)C1=O` came in with a kinetic solubility of 2.5 µg/mL (≈ 8.7 µM).

Compound `Cc1onc(-c2ccccc2)c1CNC(=O)C1COc2ccccc2O1` (configuration not stated) had a kinetic solubility of 46.2 µg/mL (≈ 132 µM).

Turning to `COc1ccc(C(=O)NCCc2cnc[nH]2)cc1OC`, the solubility (kinetic) was > 41.3 µg/mL.

`CCC(C)c1ccc(NC(=O)Nc2cccnc2)cc1` (configuration not stated) had a kinetic solubility of 33.2 µg/mL (≈ 123 µM).

For `O=C(CC1SC(N2CCCCC2)=NC1=O)Nc1ccc(C(=O)NCc2ccccc2)cc1` (configuration not stated), the solubility (kinetic) was found to be 61.3 µg/mL (≈ 136 µM).

In the case of `COc1ccc2ccc(O)c(CN3CC=C(c4ccccc4)CC3)c2c1`, the solubility (kinetic) was found to be 1.6 µg/mL (≈ 4.63 µM).

`O=C(COC(=O)c1cncc(Br)c1)NCc1cccs1` had a solubility (kinetic) of 40.6 µg/mL (≈ 114 µM).

Take `O=C(CCN1C(=O)c2cccc3cccc(c23)C1=O)NCC1CCCO1` (configuration not stated): the solubility (kinetic) was > 52.9 µg/mL.

The compound `Cc1noc(C)c1C(=O)N1CCC(CO)(Cc2ccccc2)CC1` showed a solubility (kinetic) of 42 µg/mL (≈ 128 µM).

Consider `CC(C)OC(=O)/C(=C\c1cccnc1)NC(=O)c1ccccc1`, for which the kinetic solubility was > 46.6 µg/mL.

Compound `O=c1[nH]c(COc2ccccc2)nc2ccccc12` gave a kinetic solubility of 4.1 µg/mL (≈ 16.3 µM).

On to `COCCNC(=O)c1cc2cc(Cl)cc(Cl)c2oc1=O`, for which the kinetic solubility was 9.2 µg/mL (≈ 29.1 µM).

The compound `O=C(O)c1cccc([N+](=O)[O-])c1C(=O)Nc1cccc2ccccc12` had a kinetic solubility of 39.5 µg/mL (≈ 117 µM).

`O=C(Nc1cccc(S(=O)(=O)N2CCCCC2)c1)C1CCCC1` gave a kinetic solubility of 41.2 µg/mL (≈ 122 µM).

Turning to `COc1ccc(NC(=O)CCN2CCOCC2)c(OC)c1`, the kinetic solubility was > 44.2 µg/mL.

`CC(=O)Nc1ccc(S(=O)(=O)Nc2ccc(Cl)cn2)cc1` showed a kinetic solubility of 46.3 µg/mL (≈ 142 µM).

Take `O=C(c1cc2cc(Cl)ccc2[nH]1)N1CCCCC1`: the solubility (kinetic) was 2 µg/mL (≈ 7.61 µM).

The compound `O=C(N1CCCC1)C12CC3CC(CC(Cl)(C3)C1)C2` came in with a solubility (kinetic) of 37.9 µg/mL (≈ 142 µM).

Take `COc1ccc(NC(=O)COc2ccc(/C=N/O)cc2OC)cc1`: the kinetic solubility was > 49.6 µg/mL.

In the case of `CC1CNCCN1S(=O)(=O)c1cccc2cnccc12.Cl` (configuration not stated), the kinetic solubility was > 54.6 µg/mL.

Consider `C(=C\c1ccccc1)/CNCC1CCCO1.Cl` (configuration not stated), for which the kinetic solubility was 38 µg/mL.

On to `Cc1nc(N)nc(SCc2ccc([N+](=O)[O-])cc2)c1N`, for which the solubility (kinetic) was determined as 16.1 µg/mL (≈ 55.3 µM).

The compound `COC(=O)C(C)NC(=O)C12CC3CC(C1)CC(c1ccc(C)cc1)(C3)C2` (configuration not stated) returned a kinetic solubility of 30.6 µg/mL (≈ 86.1 µM).

For the compound `O=C1NC2=C(C(=O)CCC2)C(c2ccccc2Cl)N1` (configuration not stated), the solubility (kinetic) worked out at 39.1 µg/mL (≈ 141 µM).

Regarding `Cc1cnc(C(=O)N2CCN(S(=O)(=O)c3cccc(Br)c3)CC2)cn1`, the solubility (kinetic) was > 63.8 µg/mL.

As to `O=S(=O)(NC1=NCCCCC1)c1ccc(F)cc1`, the solubility (kinetic) is > 40.5 µg/mL.

On to `CC(C)Cn1c(N)c(C=O)c(=O)n(C)c1=O`, for which the kinetic solubility was > 33.8 µg/mL.

Regarding `Cn1c(SCC(=O)NC2CCCC2)nnc1-c1ccccn1`, the kinetic solubility was > 47.6 µg/mL.

For the compound `CN(C)C(CNC(=O)c1ccc([N+](=O)[O-])cc1Cl)c1ccco1` (configuration not stated), the kinetic solubility was > 50.7 µg/mL.

Turning to `O=C(c1ccc(-c2ccccc2)cc1)N1CCN(c2ccc(F)cc2)CC1`, the solubility (kinetic) was found to be 2.4 µg/mL (≈ 6.66 µM).

Regarding `CC(=O)Nc1cccc(OCCCNC(=O)C2CCC2)c1`, the solubility (kinetic) was > 43.6 µg/mL.

On to `CN1CCN(C(=O)/C=C/c2cccc(Cl)c2)CC1`, for which the solubility (kinetic) is > 39.7 µg/mL.

As for `COc1ccc(S(N)(=O)=O)cc1C(=O)OCC(=O)Nc1sccc1C#N`, the solubility (kinetic) worked out at 15.1 µg/mL (≈ 38.2 µM).

As to `CC(=O)c1cccc(NC(=S)N2CCCC2)c1`, the solubility (kinetic) was > 37.3 µg/mL.

With `Cc1cc(C)c(S(=O)(=O)Nc2cnc3ccccc3c2)c(C)c1`, the kinetic solubility turned out to be 19.2 µg/mL (≈ 58.8 µM).

With `O=C(CSc1nncs1)NCc1ccc(F)cc1`, the solubility (kinetic) was > 42.5 µg/mL.

Take `COc1ccc(C(C)=O)cc1COC(=O)c1cccnc1SC`: the kinetic solubility was < 0.7 µg/mL.

With `Nc1nnc(SCC(=O)N2CCCCC2)s1`, the kinetic solubility was > 38.8 µg/mL.

As for `CCOc1cc(/C=C/C(=O)OCC(=O)NCC2CCCO2)cc(Cl)c1OC` (configuration not stated), the kinetic solubility was determined as 52.7 µg/mL (≈ 132 µM).

In the case of `COc1ccc(-n2ccnc2)cc1`, the solubility (kinetic) was > 26.1 µg/mL.

Turning to `O=C(Nc1cccc(NC(=O)c2cccnc2)c1)c1ccccc1`, the kinetic solubility is 21.9 µg/mL (≈ 69 µM).

The compound `Cn1c(CNC(=O)c2ccccc2F)cc2ccccc21` returned a solubility (kinetic) of 10.1 µg/mL (≈ 35.8 µM).

For the compound `O=C(Nc1ccc2ccccc2c1)c1ccccc1F`, the kinetic solubility was < 0.6 µg/mL.

In the case of `O=C(NCc1ccncc1)c1cncc(Br)c1`, the solubility (kinetic) was > 43.8 µg/mL.

In the case of `COc1ccc2oc(N)c(C=O)c(=O)c2c1`, the solubility (kinetic) was found to be 30.8 µg/mL (≈ 141 µM).

Turning to `CN(C)c1ccc(C=NCC2COc3ccccc3O2)cc1` (configuration not stated), the kinetic solubility was > 44.5 µg/mL.

As to `COc1ccccc1OCc1ccc(C(=O)N2CCCCC2)o1`, the solubility (kinetic) is > 47.3 µg/mL.
